Patent publication US7547440B2, “T-cell epitope peptides” (Meiji Dairies Corporation, priority 1996, dated 2009)

Test system: T-cell line stimulated by Cha o 2 from patients with Japanese cypress pollinosis
Experiment: Growth response ([3H]thymidine uptake) of Cha o 2-stimulated T-cell lines to overlapping peptides
Assay type: cell-based, human
Conditions: Cha o 2 overlapping peptides, final concentration 1 μM; T-cell lines from 20 patients; FIG. 5, FIG. 8
Text: To obtain the T-cell epitope peptides of the present invention, overlapping peptides that cover the entire primary structures of Cha o 1 and Cha o 2 were synthesized; each peptide consists of the adequate number of amino acid residues (12 to 20 residues). The peptide of the present invention stimulates and/or suppresses the activity of T cells derived from patients with pollinosis caused by tree pollens in springtime. In other words, the peptide of the present invention can induce proliferation of T cells or responses of T cells such as secretion of lymphokines, and/or can induce T-cell anergy (non-responsiveness). T-cell epitope sites on the allergen molecules can be identified using T-cell growth as an index in accordance with the method described in JP-A-Hei 8-47392. In particular, T-cell lines or T-cell clones, which are specifically reactive with Cha o 1 and Cha o 2, are established for every patient from peripheral lymphocytes of a patient with Japanese cypress pollinosis. The T-cell lines or T-cell clones are cultured in the presence of each peptide of the overlapping peptides. The epitope sites are identified by measuring the proliferation of T cells in the presence of the peptide (e.g., uptake of [^3H]thymidine into the cells) and calculating a stimulation index. […] Based on the data obtained thus, a mean stimulation index for each peptide is calculated for each patient group. […]

2-14: overlapping peptide of Japanese cypress pollen allergen Cha o 2, 20 residues (ARWKNSKIWLQFAQLTDFNL)
T-cell stimulating activity (contains at least one T-cell epitope): possess a T-cell stimulating activity
